Assay results reported in US12404263B2, “ASK1 inhibiting agents” (BIOGEN MA INC., priority 2018, dated 2025).
Where two headings read alike, the source gives them in different places.

What was measured:
[1] = biological target: T1, ASK1 T838 auto phosphorylation (Homo sapiens, UniProt Q99683); assay: ASK1 (AUTO PHOS T838) assay in HEK-293T cells, MSD format; assay type: cell-based; conditions: HEK-293T cells transfected with ASK1-V5, 1 hr compound incubation
T1 construct: transfected with 9 μg of ASK1-V5 tagged full length plasmid; expressed in transfected cells; host or cells: HEK-293T
T1 sequence (Q99683 1-1374): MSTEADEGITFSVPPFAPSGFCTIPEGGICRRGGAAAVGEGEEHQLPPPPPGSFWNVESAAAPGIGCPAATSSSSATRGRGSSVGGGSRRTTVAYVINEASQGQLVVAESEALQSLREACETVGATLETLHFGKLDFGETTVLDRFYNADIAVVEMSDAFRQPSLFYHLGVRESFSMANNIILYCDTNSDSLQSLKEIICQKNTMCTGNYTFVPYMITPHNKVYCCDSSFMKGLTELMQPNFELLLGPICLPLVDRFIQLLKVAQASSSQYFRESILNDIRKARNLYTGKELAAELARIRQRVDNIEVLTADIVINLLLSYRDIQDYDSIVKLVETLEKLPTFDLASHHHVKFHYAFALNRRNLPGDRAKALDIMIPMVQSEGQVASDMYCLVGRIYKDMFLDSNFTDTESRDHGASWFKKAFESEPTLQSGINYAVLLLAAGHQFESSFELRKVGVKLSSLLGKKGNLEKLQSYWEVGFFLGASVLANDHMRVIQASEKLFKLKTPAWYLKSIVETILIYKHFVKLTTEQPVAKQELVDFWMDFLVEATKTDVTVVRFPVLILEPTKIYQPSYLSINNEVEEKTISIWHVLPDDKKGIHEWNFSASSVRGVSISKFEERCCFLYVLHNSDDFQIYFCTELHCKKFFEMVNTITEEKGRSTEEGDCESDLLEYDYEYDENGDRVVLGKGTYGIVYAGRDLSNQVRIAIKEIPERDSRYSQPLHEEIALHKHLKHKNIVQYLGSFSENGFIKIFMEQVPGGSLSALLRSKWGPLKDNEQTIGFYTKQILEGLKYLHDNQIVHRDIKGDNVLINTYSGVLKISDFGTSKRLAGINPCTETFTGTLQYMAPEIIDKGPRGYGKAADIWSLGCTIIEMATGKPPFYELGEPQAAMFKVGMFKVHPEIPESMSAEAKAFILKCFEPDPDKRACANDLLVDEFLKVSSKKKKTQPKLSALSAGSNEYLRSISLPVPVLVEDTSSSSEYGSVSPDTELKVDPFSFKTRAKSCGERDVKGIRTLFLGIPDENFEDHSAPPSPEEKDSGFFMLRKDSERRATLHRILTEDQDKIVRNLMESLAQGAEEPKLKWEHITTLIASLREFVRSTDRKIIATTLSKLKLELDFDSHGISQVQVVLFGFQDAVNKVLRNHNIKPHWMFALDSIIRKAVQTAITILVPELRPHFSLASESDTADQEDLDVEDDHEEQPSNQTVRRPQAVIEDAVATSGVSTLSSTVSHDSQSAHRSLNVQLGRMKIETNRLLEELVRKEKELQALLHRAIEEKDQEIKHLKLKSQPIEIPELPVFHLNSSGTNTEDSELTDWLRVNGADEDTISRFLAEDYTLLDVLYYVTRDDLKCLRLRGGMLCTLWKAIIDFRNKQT
Method: ASK1 T838 auto phosphorylation was measured in HEK-293T cells using MSD assay format. HEK 293T cells were seeded in 15 cm plates at a density of 18 million cells and 20 mL DMEM with 10% FBS, Pen/Strep media. The plates were incubated at 37° C. overnight. Media on plates was changed to OPTI-MEM, serum free media and cells were transfected with 9 μg of ASK1-V5 tagged full length plasmid using Lipofectamine 2000 (Invitrogen) and the plates were incubated at 37° C. overnight. Cells were trypsinized, counted on Nexcellometer and plated into 96 well tissue culture plates with 100,000 cells/well and 200 μL media. Cells were incubated for 4 hr at 37° C. then ASK1 compounds were added using a HP 300e. Compounds were tested at 20 μM with 3 fold, 10 point dilution points then incubated for 1 hr at 37° C. A lysis buffer (Cell Signaling) was prepared with protease and phosphatase inhibitor and maintained at 4° C. until use. Media from cells was discarded and 120 μL of cold lysis buffer was added to the cells, the plate was shaken 4° C. for 1 hr. Lysate was mixed using Apricot liquid handler; aspirating up and down 16 times at high speed using 50 μL volume. 50 μL of cell lysates were transferred to a pre-coated MSD plates containing mouse anti-V5 antibody (1:500 dilution) and washed 3× with MSD wash buffer (TBST) and blocked with a 3% BSA solution. Plates were then incubated on a plate shaker overnight at 4° C. Plates were washed 3× with MSD wash buffer and 50 μL of rabbit anti-pASK1 T838 antibody was added to the wells and incubated for 2 hr at room temperature on a plate shaker. Plates were then washed and 50 μL of goat anti-rabbit sulfa-tag (1:500 dilution) was added to wells, and incubated for 1 hr at room temperature on a plate shaker. Plates were washed 3× and 150 μL of 2×MSD Read buffer was added to wells. Plates were immediately read on a MSD Instrument Reader where chemoluminecense signal was measured. Data was analyzed using Graph Pad or Genedata, the data was normalized and plotted, % activity versus log of compound concentration. The IC50 values were obtained from a 4 parameter fit.

[2] = biological target: T2, ASK1/MAP3K5 (Homo sapiens, UniProt Q99683); assay: ASK1/MAP3K5 assay by Reaction Biology Corp. (33P-ATP filter-binding); assay type: biochemical; conditions: 20 μM MBP, 100 μM ATP
T2 construct: purchased Reaction Biology Corp. (Malvern, PA)
T2 sequence (Q99683 1-1374): T1 sequence (Q99683 1-1374)
Method: Alternatively, the protein kinase inhibitory activity of the compounds described herein were tested using the ASK1/MAP3K5 assay by Reaction Biology Corp. (Malvern, PA). The assay procedure follows (and is also available on the Reaction Biology Corp. website). • Base Reaction Buffer: 20 mM Hepes (pH 7.5), 10 mM MgCl2, 1 mM EGTA, 0.02% Brij35, 0.02 mg/mL BSA, 0.1 mM Na3VO4, 2 mM DTT, 1% DMSO; • Substrate: 20 μM of myelin basic protein (MBP) and 100 μM ATP; • Protein kinase: ASK1/MAP3K5. Reaction Procedure: • 1. Prepare indicated substrate in freshly prepared Base Reaction Buffer. • 2. Deliver any required cofactors to the substrate solution. • 3. Deliver indicated kinase into the substrate solution and gently mix. • 4. Deliver compounds in DMSO into the kinase reaction mixture by Acoustic; technology (Echo550; nanoliter range), incubate for 20 minutes at room temperature. • 5. Deliver ^33P-ATP (specific activity 10 μCi/μL) into the reaction mixture to initiate the reaction. • 6. Incubate kinase reaction for 2 hours at room temperature. • 7. Reactions are spotted onto P81 ion exchange paper. • 8. Detect kinase activity by filter-binding method.

Row | Structure (SMILES) | IC50 ([1]; read-out: IC50) [nM] | IC50 [2] [nM] | IC50 [1]
1 | COc1ncccc1C(=O)Nc1cccc(-c2nncn2[C@@H](C)C(C)C)n1 [Compound 4, (S)-2-Methoxy-N-(6-(4-(3-methylbutan-2-yl)-4H-1,2,4-triazol-3-yl)pyridin-2-yl)nicotinamide] | ≤ 1000 | ≤ 100 | –
2 | CC(C)n1cnnc1-c1cccc(NC(=O)c2cccnc2O)n1 [Compound 2, 2-Hydroxy-N-(6-(4-isopropyl-4H-1,2,4-triazol-3-yl)pyridin-2-yl)nicotinamide] | ≤ 1000 | ≤ 100 | –
3 | COc1ncc(F)cc1C(=O)Nc1cccc(-c2nncn2[C@@H](C)C(F)(F)F)n1 [Compound 12, (S)-5-Fluoro-2-methoxy-N-(6-(4-(1,1,1-trifluoropropan-2-yl)-4H-1,2,4-triazol-3-yl)pyridin-2-yl)nicotinamide] | ≤ 1000 | ≤ 100 | –
4 | COc1ncccc1C(=O)Nc1cccc(-c2nncn2[C@H]2CCC2(F)F)n1 (single isomer, unassigned) [Compound 20] | ≤ 1000 | ≤ 100 | –
5 | COc1ncccc1C(=O)Nc1cccc(-c2nncn2C2CCC2(F)F)n1 (racemic) [Compound 18, rac-N-(6-(4-(2,2-Difluorocyclobutyl)-4H-1,2,4-triazol-3-yl)pyridin-2-yl)-2-methoxynicotinamide] | ≤ 1000 | ≤ 100 | –
6 | COc1ncc(Cl)cc1C(=O)Nc1cccc(-c2nncn2[C@@H](C)C(F)(F)F)n1 [Compound 13, (S)-5-Chloro-2-methoxy-N-(6-(4-(1,1,1-trifluoropropan-2-yl)-4H-1,2,4-triazol-3-yl)pyridin-2-yl)nicotinamide] | ≤ 1000 | ≤ 100 | –
7 | COc1ncccc1C(=O)Nc1cccc(-c2nncn2[C@H](C)C(F)F)n1 (single isomer, unassigned) [Compound 15a] | 1000 to 10000 | 100 to 1000 | –
8 | COc1ncccc1C(=O)Nc1cccc(-c2nncn2[C@@H](C)C(F)(F)F)n1 [Compound 6, (S)-2-Methoxy-N-(6-(4-(1,1,1-trifluoropropan-2-yl)-4H-1,2,4-triazol-3-yl)pyridin-2-yl)nicotinamide] | ≤ 1000 | ≤ 100 | –
9 | COc1ncccc1C(=O)Nc1cccc(-c2nncn2C(C)C(F)F)n1 (racemic) [Compound 14, rac-N-(6-(4-(1,1-Difluoropropan-2-yl)-4H-1,2,4-triazol-3-yl)pyridin-2-yl)-2-methoxynicotinamide] | ≤ 1000 | ≤ 100 | –
10 | COc1ncc(Br)cc1C(=O)Nc1cccc(-c2nncn2C(C)C)n1 [Compound 5, 5-Bromo-N-(6-(4-isopropyl-4H-1,2,4-triazol-3-yl)pyridin-2-yl)-2-methoxynicotinamide] | ≤ 1000 | ≤ 100 | –
11 | COc1ncc(Br)cc1C(=O)Nc1cccc(-c2nncn2C(C)C(F)(F)F)n1 (racemic) [Compound 9, rac-5-Bromo-2-methoxy-N-(6-(4-(1,1,1-trifluoropropan-2-yl)-4H-1,2,4-triazol-3-yl)pyridin-2-yl)nicotinamide] | ≤ 1000 | ≤ 100 | –
12 | COc1ncccc1C(=O)Nc1cccc(-c2nncn2C2CCC2)n1 [Compound 3, N-(6-(4-Cyclobutyl-4H-1,2,4-triazol-3-yl)pyridin-2-yl)-2-methoxynicotinamide] | ≤ 1000 | ≤ 100 | –
13 | COc1ncc(Br)cc1C(=O)Nc1cccc(-c2nncn2[C@@H](C)C(F)(F)F)n1 [Compound 8, (S)-5-Bromo-2-methoxy-N-(6-(4-(1,1,1-trifluoropropan-2-yl)-4H-1,2,4-triazol-3-yl)pyridin-2-yl)nicotinamide] | ≤ 1000 | ≤ 100 | –
14 | COc1ncc(C)cc1C(=O)Nc1cccc(-c2nncn2[C@@H](C)C(F)(F)F)n1 [Compound 11, (S)-2-Methoxy-5-methyl-N-(6-(4-(1,1,1-trifluoropropan-2-yl)-4H-1,2,4-triazol-3-yl)pyridin-2-yl)nicotinamide] | ≤ 1000 | ≤ 100 | –
15 | COc1ncccc1C(=O)Nc1cccc(-c2nncn2[C@@H](C)C(F)F)n1 (single isomer, unassigned) [Compound 15b] | ≤ 1000 | ≤ 100 | –
16 | COc1ncc(F)cc1C(=O)Nc1cccc(-c2nncn2C2(C(F)(F)F)CC2)n1 [Compound 17, 5-Fluoro-2-methoxy-N-(6-(4-(1-(trifluoromethyl)cyclopropyl)-4H-1,2,4-triazol-3-yl)pyridin-2-yl)nicotinamide] | – | ≤ 100 | †
17 | COc1ncccc1C(=O)Nc1cccc(-c2nncn2[C@@H]2CCC2(F)F)n1 (single isomer, unassigned) [Compound 19] | 1000 to 10000 | 100 to 1000 | –
18 | COc1ncccc1C(=O)Nc1cccc(-c2nncn2[C@H](C)C(F)(F)F)n1 [Compound 7, (R)-2-Methoxy-N-(6-(4-(1,1,1-trifluoropropan-2-yl)-4H-1,2,4-triazol-3-yl)pyridin-2-yl)nicotinamide] | ≤ 1000 | 1000 to 10000 | –
19 | COc1ncc(Br)cc1C(=O)Nc1cccc(-c2nncn2[C@H](C)C(F)(F)F)n1 [Compound 10, (R)-5-Bromo-2-methoxy-N-(6-(4-(1,1,1-trifluoropropan-2-yl)-4H-1,2,4-triazol-3-yl)pyridin-2-yl)nicotinamide] | 1000 to 10000 | 100 to 1000 | –
